ChEMBL document CHEMBL1143735, “Synthesis, anti-HIV activity, and resistance profile of thymidine phosphonomethoxy nucleosides and their bis-isopropyloxymethylcarbonyl (bisPOC) prodrugs” (Bioorg Med Chem, 2007)

How the values were obtained:
[1] = test system: Human immunodeficiency virus 1; assay: Antiviral activity against HIV1 with reverse transcriptase K65R mutation assessed as reduction of potency relative to wild type; format: functional
[2] = test system: Human immunodeficiency virus 1; assay: Antiviral activity against HIV1 with reverse transcriptase 6TAM mutation assessed as reduction of potency relative to wild type; format: functional
[3] = test system: Human immunodeficiency virus 1; assay: Inhibition of virus-induced cytopathic effect in wild type HIV 3a infected MT2 cells after 5 days; format: functional, organism-based; conditions: Human immunodeficiency virus 1, 3a, MT2, 120 h
[4] = test system: Human immunodeficiency virus 1; assay: Antiviral activity against HIV with reverse transcriptase M184V mutation assessed as reduction of potency relative to wild type; format: functional
[5] = Cytotoxicity against MT2 cells; format: cell-based; conditions: human
[6] = target: Human immunodeficiency virus type 1 reverse transcriptase (Human immunodeficiency virus 1, UniProt Q72547); assay: Inhibition of HIV1 reverse transcriptase

SMILES	Fold change [1]	Fold change [2]	EC50 [3] [µM]	Fold change [4]	CC50 [5] [µM]	IC50 [6] [µM]
Cc1cn([C@H]2C=C[C@@H](OCP(=O)(O)O)O2)c(=O)[nH]c1=O	5.2	13	26	1.1	> 500	0.39
Cc1cn([C@H]2CC[C@@H](OCP(=O)(O)O)O2)c(=O)[nH]c1=O	–	–	> 200	–	> 500	5.4
Cc1cn([C@H]2CC[C@@H](OCP(=O)(OCOC(=O)OC(C)C)OCOC(=O)OC(C)C)O2)c(=O)[nH]c1=O	–	–	1.3	–	> 50	–
Cc1cn([C@H]2CC[C@@H](OCP(=O)(O)O)O2)c(=O)[nH]c1=O.O=P(O)(O)OP(=O)(O)O	–	–	> 200	–	> 500	5.4
Cc1cn([C@H]2C[C@H](N=[N+]=[N-])[C@@H](OCP(=O)(O)O)O2)c(=O)[nH]c1=O	–	–	> 200	–	–	–
Cc1cn([C@H]2C=C[C@@H](OCP(=O)(OCOC(=O)OC(C)C)OCOC(=O)OC(C)C)O2)c(=O)[nH]c1=O	–	–	0.91	–	10	–
Cc1cn([C@H]2CC[C@@H](CO)O2)c(=O)[nH]c1=O	–	–	> 200	–	–	0.12
Cc1cn([C@H]2C=C[C@@H](COP(=O)(O)OP(=O)(O)OP(=O)(O)O)O2)c(=O)[nH]c1=O [STAVUDINE TRIPHOSPHATE]	5.2	13	26	1.1	> 500	0.39
Cc1cn([C@H]2C=C[C@@H](CO)O2)c(=O)[nH]c1=O [STAVUDINE]	2.3	5.5	4.8	1.2	286	0.06
C[C@H](Cn1cnc2c(N)ncnc21)OCP(=O)(O)O [TENOFOVIR ANHYDROUS]	4.3	8.8	–	0.7	> 200	0.38
CC(C)OC(=O)OCOP(=O)(CO[C@H](C)Cn1cnc2c(N)ncnc21)OCOC(=O)OC(C)C.O=C(O)/C=C/C(=O)O [TENOFOVIR DISOPROXIL FUMARATE]	3.1	7.7	0.015	–	> 50	–
Cc1cn([C@H]2C[C@H](N=[N+]=[N-])[C@@H](CO)O2)c(=O)[nH]c1=O [ZIDOVUDINE]	–	–	–	–	> 200	–
